# Data taken from patent US10064831B2, “Active substances and cosmetic or dermatological preparations containing said active substances for the care of the skin of patients of diabetes mellitus” (BEIERSDORF AG, priority 2015, dated 2018).
# Tested on: glyoxalases
# Experiment: induction of glyoxalase activity in skin cells
# Assay type: cell-based
# Conditions: no method or numbers given
structure (smiles),measurement,value
C=CC(C)(C)c1cc(/C=C/C(=O)c2ccc(O)cc2)c(OC)cc1O [licochalcone A],activity of glyoxalases induced in skin cells,enhanced activity of glyoxalases
